In the supplement of paper PMC11061612:

How the values were obtained:
[1] = test system: OPM-2 (Plasma Cell Myeloma); experiment: Bliss excess, mean over the matrix (fraction); higher = more synergy
Procedure, shortened: (§1)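 After 24 hours at 37°C and 5% CO2 in 1536-well plates, cells in DMEM/F12 or RPMI plus 10% FBS received two-drug dose matrices for 72 hours. Viability came from CellTiter-Glo 2.0 luminescence and was scaled as inhibition, anchored at 0 by vehicle wells and at 1 by blank wells. Combination Emax is taken as the second-highest inhibition in the matrix, and Bliss excess as the observed combination effect less EA + EB − EA·EB, with EA and EB the single-agent effects.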

[2] = test system: OVMIU (Ovarian Carcinoma); experiment: as above
Procedure, shortened: as §1

[3] = test system: LK-2 (Squamous Cell Lung Carcinoma); experiment: as above
Procedure, shortened: as §1

SK-MEL-2 (Melanoma) [4] = experiment: as above
Procedure, shortened: as §1

[5] = test system: RKN (Other Solid Carcinomas); experiment: combination Emax (second highest fraction inhibited in the dose matrix, 72 h); higher = more inhibition; extreme values may be limits of the assay
Procedure, shortened: as §1

NB12 (Neuroblastoma) = experiment: as above
Procedure, shortened: as §1

[6] = test system: MFE-280 (Endometrial Carcinoma); experiment: as above
Procedure, shortened: as §1

[7] = test system: SK-PN-DW (Other Solid Carcinomas); experiment: as above
Procedure, shortened: as §1

[8] = test system: SHP-77 (Small Cell Lung Carcinoma); experiment: as above
Procedure, shortened: as §1

[9] = test system: TE-8 (Esophageal Squamous Cell Carcinoma); experiment: as above
Procedure, shortened: as §1

[10] = test system: RCM-1 (Colorectal Carcinoma); experiment: as above
Procedure, shortened: as §1

SF539 (Glioblastoma) = experiment: as above
Procedure, shortened: as §1

IST-MES1 (Mesothelioma) = experiment: as above
Procedure, shortened: as §1

[11] = test system: NCI-H2342 (Lung Adenocarcinoma); experiment: as above
Procedure, shortened: as §1

[12] = test system: OVMIU (Ovarian Carcinoma); experiment: as above
Procedure, shortened: as §1

[13] = test system: HSC-39 (Gastric Carcinoma); experiment: as above
Procedure, shortened: as §1

[14] = test system: PANC-03-27 (Pancreatic Carcinoma); experiment: as above
Procedure, shortened: as §1

[15] = test system: LK-2 (Squamous Cell Lung Carcinoma); experiment: as above
Procedure, shortened: as §1

[16] = test system: CAL-62 (Thyroid Gland Carcinoma); experiment: as above
Procedure, shortened: as §1

SK-MEL-2 (Melanoma) [17] = experiment: as above
Procedure, shortened: as §1
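For Bliss excess, mean over the matrix in this document: after 72 h of two-drug dosing.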

Structure (SMILES)	Bliss excess [1]	Bliss excess [2]	Bliss excess [3]	Bliss excess (SK-MEL-2 (Melanoma) [4])	combination Emax [5]	combination Emax (NB12 (Neuroblastoma))	combination Emax [6]	combination Emax [7]	combination Emax [8]	combination Emax [9]	combination Emax [10]	combination Emax (SF539 (Glioblastoma))	combination Emax (IST-MES1 (Mesothelioma))	combination Emax [11]	combination Emax [12]	combination Emax [13]	combination Emax [14]	combination Emax [15]	combination Emax [16]	combination Emax (SK-MEL-2 (Melanoma) [17])
C=CCn1c(=O)c2cnc(Nc3ccc(N4CCN(C)CC4)cc3)nc2n1-c1cccc(C(C)(C)O)n1 [AZD1775] + CCc1c2c(nc3ccc(O)cc13)-c1cc3c(c(=O)n1C2)COC(=O)[C@]3(O)CC [SN-38] (first compound max 1 µM, partner max 0.3 µM)	0.0117	-0.055	0.0768	0.0426	0.817	0.879	0.87	0.947	0.651	0.923	0.775	0.997	0.778	0.737	0.587	1	0.844	0.975	0.893	0.619
C=CCn1c(=O)c2cnc(Nc3ccc(N4CCN(C)CC4)cc3)nc2n1-c1cccc(C(C)(C)O)n1 [AZD1775] + Nc1ccn([C@@H]2O[C@H](CO)[C@@H](O)C2(F)F)c(=O)n1 [Gemcitabine] (first compound max 1 µM, partner max 0.3 µM)	0.0255	-0.025	0.117	-0.0156	0.633	0.806	0.655	0.864	0.676	0.806	0.593	0.986	0.831	0.784	0.608	1	0.703	0.982	0.826	0.507
CN(CCO)CC[C@H](CSc1ccccc1)Nc1ccc(S(=O)(=O)NC(=O)c2ccc(N3CCC([C@@H](O)c4ccccc4-c4ccc(Cl)cc4)CC3)cc2)cc1S(=O)(=O)C(F)(F)F [AZD4320] + CC(=O)O[C@H]1C(=O)[C@@]2(C)[C@H]([C@H](OC(=O)c3ccccc3)[C@]3(O)C[C@H](OC(=O)[C@H](O)[C@@H](NC(=O)c4ccccc4)c4ccccc4)C(C)=C1C3(C)C)[C@]1(OC(C)=O)CO[C@@H]1C[C@@H]2O [Paclitaxel] (first compound max 1 µM, 7x7, partner max 3 µM)	0.023	0.0232	0.0318	0.148	0.994	1	0.979	0.918	1	0.967	0.54	1	0.873	0.977	0.929	1	0.885	1	0.951	0.915
CN(CCO)CC[C@H](CSc1ccccc1)Nc1ccc(S(=O)(=O)NC(=O)c2ccc(N3CCC([C@@H](O)c4ccccc4-c4ccc(Cl)cc4)CC3)cc2)cc1S(=O)(=O)C(F)(F)F [AZD4320] + CS(=O)(=O)CCNCc1ccc(-c2ccc3ncnc(Nc4ccc(OCc5cccc(F)c5)c(Cl)c4)c3c2)o1 [Lapatinib] (first compound max 1 µM, 7x7, partner max 10 µM)	0.0503	0.106	0.0876	-0.0501	0.212	1	0.962	0.85	0.969	0.744	0.901	0.575	0.892	0.368	0.971	0.985	0.907	0.977	0.911	0.27
CN(CCO)CC[C@H](CSc1ccccc1)Nc1ccc(S(=O)(=O)NC(=O)c2ccc(N3CCC([C@@H](O)c4ccccc4-c4ccc(Cl)cc4)CC3)cc2)cc1S(=O)(=O)C(F)(F)F [AZD4320] + Nc1ccn([C@@H]2O[C@H](CO)[C@@H](O)C2(F)F)c(=O)n1 [Gemcitabine] (first compound max 1 µM, 7x7, partner max 0.3 µM)	0.0089	0.0028	0.083	-0.0453	0.275	1	0.8	0.165	0.549	0.57	0.37	0.945	0.8	0.403	0.596	0.869	0.737	0.916	0.911	0.0969
Cc1c2c(nn1C)CSCc1cc(n(C)n1)CSc1cc(c3ccccc3c1)OCCCc1c(C(=O)O)n(C)c3c-2c(Cl)ccc13 [AZD5991] + CC(=O)O[C@H]1C(=O)[C@@]2(C)[C@H]([C@H](OC(=O)c3ccccc3)[C@]3(O)C[C@H](OC(=O)[C@H](O)[C@@H](NC(=O)c4ccccc4)c4ccccc4)C(C)=C1C3(C)C)[C@]1(OC(C)=O)CO[C@@H]1C[C@@H]2O [Paclitaxel] (first compound max 1 µM, 7x7, partner max 3 µM)	0.0072	0.0231	0.0165	-0.0341	0.839	0.91	0.574	0.952	0.971	0.702	0.342	0.971	0.651	0.988	0.735	1	0.688	0.986	0.81	1
Cc1c2c(nn1C)CSCc1cc(n(C)n1)CSc1cc(c3ccccc3c1)OCCCc1c(C(=O)O)n(C)c3c-2c(Cl)ccc13 [AZD5991] + CS(=O)(=O)CCNCc1ccc(-c2ccc3ncnc(Nc4ccc(OCc5cccc(F)c5)c(Cl)c4)c3c2)o1 [Lapatinib] (first compound max 1 µM, 7x7, partner max 10 µM)	-0.0145	0.0371	-0.019	-0.0147	0.205	0.464	0.347	0.956	0.42	0.409	0.409	0.479	0.615	0.34	0.687	1	0.558	0.186	0.237	0.955
Cc1c2c(nn1C)CSCc1cc(n(C)n1)CSc1cc(c3ccccc3c1)OCCCc1c(C(=O)O)n(C)c3c-2c(Cl)ccc13 [AZD5991] + Nc1ccn([C@@H]2O[C@H](CO)[C@@H](O)C2(F)F)c(=O)n1 [Gemcitabine] (first compound max 1 µM, 7x7, partner max 0.3 µM)	0.0109	-0.0823	0.0117	-0.0657	0.107	0.77	0.468	0.815	0.595	0.574	0.392	0.886	0.742	0.636	0.551	1	0.549	0.674	0.751	0.925
C[C@@H]1COCCN1c1cc(C2([S@](C)(=N)=O)CC2)nc(-c2ccnc3[nH]ccc23)n1 [AZD6738] + C1CC(C1)(C(=O)[O-])C(=O)[O-].N.N.[Pt+2] [Carboplatin] (first compound max 10 µM, 7x7, partner max 10 µM)	-0.051	-0.0369	-0.04	-0.005	0.286	–	0.302	0.903	0.506	0.522	0.638	0.875	0.461	0.492	0.547	1	0.652	0.406	0.684	0.201
C[C@@H]1COCCN1c1cc(C2([S@](C)(=N)=O)CC2)nc(-c2ccnc3[nH]ccc23)n1 [AZD6738] + Nc1ccn([C@@H]2O[C@H](CO)[C@@H](O)C2(F)F)c(=O)n1 [Gemcitabine] (first compound max 10 µM, 7x7, partner max 0.3 µM)	0.0289	-0.0138	0.128	0.0586	0.788	0.801	0.864	0.957	0.931	0.83	0.744	0.981	0.798	0.85	0.517	1	0.737	0.918	0.871	0.454
Cc1cc2ncnn2cc1Nc1ncc2c(n1)n(C1CCOCC1)c(=O)n2C [AZD7648] + COc1cc([C@@H]2c3cc4c(cc3[C@@H](O[C@@H]3O[C@@H]5CO[C@@H](C)O[C@H]5[C@H](O)[C@H]3O)[C@H]3COC(=O)[C@H]23)OCO4)cc(OC)c1O [Etoposide] (first compound max 10 µM, 7x7, partner max 10 µM)	-0.0072	0.0243	0.0713	-0.0163	0.598	0.695	0.889	0.918	0.546	0.602	0.515	0.934	0.685	0.569	0.498	0.854	0.619	0.784	0.829	0.166
C[C@@H](Nc1cc(F)cc(F)c1)c1cc(C(=O)N(C)C)cc2c(=O)cc(N3CCOCC3)oc12 [AZD8186] + C1CN(CCC1(C(=O)N[C@@H](CCO)C2=CC=C(C=C2)Cl)N)C3=NC=NC4=C3C=CN4 [AZD5363] (first compound max 10 µM, 7x7, partner max 10 µM)	-0.0756	-0.0719	0.0061	-0.0285	0.328	0.419	0.546	0.575	0.275	0.455	0.233	0.538	0.267	0.286	0.509	0.603	0.315	0.177	0.165	0.113
